In one data set the test system is Apotransferrin. Kind of data set: Ability of iron complexes to donate iron to apotransferrin. The data set is classed as biochemical. The settings on record: complex 10^-4 M, apotransferrin 10^-4 M, tris hydrochloride pH 7.4, 37° C., 10 minutes. How it is done:
Apotransferrin (10^-4 M) and the iron complex of 1-hydroxy-4-methoxypyrid-4-one (10^-4 M; prepared as described in Example 7) were incubated together in tris hydrochloride (50 mM, buffered to pH 7.4) at 37° C. for 10 minutes when a 1 ml aliquot was removed from the medium and added to a PD10 colum. 0.5 ml fractions were collected directly into scintillation vials for counting.

In another data set the test system is Mice. Briefly: In vivo test of iron binding capacity: excretion of 59Fe in iron-loaded mice. To be noted: control = 100% excretion. How it is done: Mice were injected intraperitoneally with iron dextran (2 mg) at weekly intervals over a four week period. Two weeks after the final injection, the mice were injected via the tail vein with ^59 Fe Lactoferrin (human lactoferrin, 1 mg per injection 2 μCi). The mice were then caged individually. After a ten day period, 1,4-hydroxypyrid-2-one was administered to groups of 8 mice at 10 mg per mouse either intraperitoneally or intragastrically (in each case 3 of the mice received only one dose whilst 5 received 2 doses at a 24 hour interval). The excretion of iron was recorded at either 12 or 24 hourly intervals over a three day period before and a two day period after administration of the compound. For comparative purposes, the procedure was repeated with a blank control and with desferrioxamine, also at 10 mg per mouse (the intraperitoneally treated mice receiving one dose of desferrioxamine and the intragastrically treated mice two doses at a 24 hour interval).
The results are shown in Table 4, being given on the basis of the control representing 100% excretion, and illustrate the particular advantage of the pyridones as compared with desferrioxamine for oral administration. […] However, this is not the case here, the large SD values being a consequence of the large range among the positive responses.

Data set [1] can be described thus: log Ksol, affinity for iron(III). In kind it is physicochemical.
Source text: In order to solubilise iron(III) hydroxide, log Ksol must be greater than 0 and in order to remove iron from transferrin, log Ksol should be in excess of 6.0.
Another data set is described as follows: physchem. To be noted: pH 7.4; for Partition coefficient Kpart, Iron complex [FeIII-(compound)3]: 100 uM; for logD at 100 µM: tris hydrochloride 20 mm. How it is done: Acid washed glassware is used throughout and, following mixing of 5 ml of the 10^-4 M aqueous solution with 5 ml n-octanol for 1 minute, the aqueous n-octanol mixture is centrifuged at 1,000 g for 30 seconds. The two resulting phases are separated for a concentration determination by spectrophotometry on each. For the free hydroxypyridones, the range 220-340 nm is used for concentration determinations whilst for the iron complexes, the range […] is used.

The test system of data set [2] is Horse spleen ferritin. Kind of data set: Mobilisation of iron from ferritin. The settings on record: 3×10^-3 M pyridone, ferritin 10^-6 M, pH 7.4, dialysis. The data set is classed as biochemical. The procedure:
Horse spleen ferritin (Sigma) was without further purification and its iron content was estimated spectrophotometrically at 420 nm. The ferritin solution in phosphate buffered saline (Dulbecco-OXOID, 10^-6 M, pH 7.4) was enclosed in a Visking dialysis tube and dialysed against a 3×10^-3 M buffered solution of one of various pyridones as indicated in Table 2. The absorption spectrum of the resulting iron(III) complex in the dialysis solution was recorded after 6 and 24 hours. For comparative purposes, the procedure was repeated using a blank control.

A further data set concerns Human transferrin. Kind of data set: Mobilisation of iron from transferrin. The data set is classed as biochemical. The settings on record: 4×10^-3 M compound, 59Fe(III) transferrin 10^-5 M; for Percentage of iron removed from transferrin, 6 hours: tris HCl pH 7.4, 6 hours; for Percentage of iron removed from transferrin, 24 hours: tris HCl pH 7.4, 24 hours. The procedure: The solution was then dialysed against phosphate buffered saline for 24 hours. The ^59 Fe remaining in the dialysis tube was then […]. For comparative purposes, this procedure was repeated with desferrioxamine and EDTA.

The test system of data set [3] is Horse spleen ferritin. To be noted: cited from earlier work.
Another data set deals with inverted rat jejunal sac. Briefly: In vitro permeation of rat jejunal sac by iron complexes. To be noted: uptake into serosal space of everted rat jejunal sac, 37° C., up to 1 hour, relative to ferric chloride as 1. The procedure:
The iron uptake into the serosal space of the inverted rat jejunal sac was compared for various iron compounds. Rats (male Sprague Dawley, 60 g) were killed and the jejunum removed, everted and cut into three segments (4 cm length). The segments were tied at both ends and filled with Krebs Ringer buffer (0.2 ml) and incubated in Krebs Ringer buffer containing ^59 Fe complexes at 37° C. for periods up to 1 hour. The contents of the sac were counted for ^59 Fe and measured spectrophotometrically.

Molecules are shown by their SMILES. Read-outs that look alike come from different tables or passages of the source.

Regarding `COc1ccn([O-])c(=O)c1.COc1ccn([O-])c(=O)c1.COc1ccn([O-])c(=O)c1.[Fe+3]`, the “iron removed from the iron complex (donated to apotransferrin)” value with Apotransferrin is listed as “over 90%”.
For the molecule `O=c1cc(O)ccn1O` [1,4-dihydroxypyrid-2-one], the “Excretion of 59Fe ± SD, Intraperitoneal Administration” value in the data set with Mice (10 mg per mouse i.p.) was found to be 195 ± 57%. In the data set with Mice (10 mg per mouse intragastrically), the “Excretion of 59Fe ± SD, Intragastric Administration” value came to 166 ± 40%. Besides, the “log Ksol” value in data set [1] is 9.9. Moreover, in “physchem”, the “Partition coefficient Kpart, Iron complex [FeIII-(compound)3]” value (“Partition coefficient Kpart” for short) came to 0.04; the logD (in general, lipophilicity at a set pH, counting ionised and neutral species) at 100 µM is -1.4. Further, in the data set with Horse spleen ferritin [2], the “Percentage of iron removed from ferritin, 6 hours” value was 22% and the “Percentage of iron removed from ferritin, 24 hours” value came to 54%. In the data set on Human transferrin, the “Percentage of iron removed from transferrin, 6 hours” value is on record as 80% and the “Percentage of iron removed from transferrin, 24 hours” value turned out to be 91%.
In the case of `COCCOc1ccn(O)c(=O)c1` [1-hydroxy-4-(2'-methoxyethoxy)-pyrid-2-one], in the data set “physchem”, the “Partition coefficient Kpart” value worked out at 0.6 and the logD at 100 µM is -0.854. Further, in the data set with Horse spleen ferritin [2], the “Percentage of iron removed from ferritin, 6 hours” value stood at 2% and the “Percentage of iron removed from ferritin, 24 hours” value is recorded as 8%. Besides, in the data set on Human transferrin, the “Percentage of iron removed from transferrin, 6 hours” value turned out to be 72% and the “Percentage of iron removed from transferrin, 24 hours” value was 75%.
For `COc1ccn(O)c(=O)c1` [1-hydroxy-4-methoxypyrid-2-one], in data set [1], the “log Ksol” value is 11.3. In addition, in “physchem”, the “Partition coefficient Kpart” value was 4.85 and the logD at 100 µM is -0.824. In the data set with Horse spleen ferritin [2], the “Percentage of iron removed from ferritin, 6 hours” value turned out to be 13% and the “Percentage of iron removed from ferritin, 24 hours” value was determined as 46%. In the data set with Human transferrin, the “Percentage of iron removed from transferrin, 6 hours” value is reported as 70% and the “Percentage of iron removed from transferrin, 24 hours” value came to 71%.
As to `CC(=O)N(O)CCCCCNC(=O)CCC(=O)N(O)CCCCCNC(=O)CCC(=O)N(O)CCCCCN` [Desferrioxamine, desferrioxamine, reference compound], in data set [1], the “log Ksol” value was 6.0. Besides, the “Percentage of iron removed from ferritin, 6 hours” value in the data set on Horse spleen ferritin [3] (1 mM desferrioxamine, similar test from literature (Crichton et al)) was 1.5%. Further, in the data set with Human transferrin, the “Percentage of iron removed from transferrin, 6 hours” value was found to be 17% and the “Percentage of iron removed from transferrin, 24 hours” value is recorded as 22%.
For the molecule `O=C(O)CN(CCN(CC(=O)O)CC(=O)O)CC(=O)O` [EDTA, ethylenediamine tetra-acetic acid, reference compound], in the data set on Human transferrin, the “Percentage of iron removed from transferrin, 6 hours” value was determined as 27% and the “Percentage of iron removed from transferrin, 24 hours” value was 67%.
For the molecule `[Cl][Fe]([Cl])[Cl]` [FeCl3, ferric chloride], the “Relative Iron Uptake” value in the data set with inverted rat jejunal sac was 1.
`O=C([O-])[C@H](O)[C@@H](O)[C@H](O)[C@H](O)CO.O=C([O-])[C@H](O)[C@@H](O)[C@H](O)[C@H](O)CO.[Fe+2]` [Fe^II gluconate]: in the data set with inverted rat jejunal sac, the “Relative Iron Uptake” value worked out at 1.6.
Turning to `O=C(NCCCCN(CCCNC(=O)c1cc(S(=O)(=O)O)cc(O)c1O)C(=O)c1cc(S(=O)(=O)O)cc(O)c1O)c1cc(S(=O)(=O)O)cc(O)c1O` [LICAMS], the “Percentage of iron removed from ferritin, 6 hours” value in the data set with Horse spleen ferritin [3] (6 mM LICAMS + 12 mM ascorbic acid, similar test from literature (Tufano et al)) was 7%.
As for `O=C(O)CN(CCN(CC(=O)O)CC(=O)O)CCN(CC(=O)O)CC(=O)O` [diethylenetriamine pentaacetic acid, reference compound], the “log Ksol” value in data set [1] was 2.0.

The values above are taken from patent USRE34313E, “Pharmaceutical compositions” (priority 1983, dated 1993).
